According to BindingDB's records for doi:10.1016/j.bioorg.2015.11.002 (Government College University, 2016):

What was measured:
Acetylcholinesterase = Acetylcholinesterase (Homo sapiens, UniProt P22303); test: Acetylcholinesterase Assay; conditions: pH 7.7
Procedure: The AChE inhibition activity was determined according to the Ellman's method with slight modifications. Total volume of the reaction mixture was 100 µL. It contained 60 µL Na2HPO4 buffer with concentration of 50 mM and pH 7.7. Ten µL test compound (0.5 mM well-1) was added, followed by the addition of 10 µL (0.005 unit well-1) enzyme. The contents were mixed and preread at 405 nm. Then contents were pre-incubated for 10 min at 37 °C. The reaction was initiated by the addition of 10 µL of 0.5 mM well-1 substrate (acetylthiocholine iodide), followed by the addition of 10 µL DTNB (0.5 mM well-1). After 30 min of incubation at 37 °C, absorbance was measured at 405 nm. Synergy HT (BioTek, USA) 96-well plate reader was used in all experiments. All experiments were carried out with their respective controls in triplicate.

Cholinesterase = Cholinesterase (Homo sapiens, UniProt P06276); test: Butyrylcholinesterase Assay; conditions: pH 7.7
Chain of Cholinesterase (P06276 whole entry): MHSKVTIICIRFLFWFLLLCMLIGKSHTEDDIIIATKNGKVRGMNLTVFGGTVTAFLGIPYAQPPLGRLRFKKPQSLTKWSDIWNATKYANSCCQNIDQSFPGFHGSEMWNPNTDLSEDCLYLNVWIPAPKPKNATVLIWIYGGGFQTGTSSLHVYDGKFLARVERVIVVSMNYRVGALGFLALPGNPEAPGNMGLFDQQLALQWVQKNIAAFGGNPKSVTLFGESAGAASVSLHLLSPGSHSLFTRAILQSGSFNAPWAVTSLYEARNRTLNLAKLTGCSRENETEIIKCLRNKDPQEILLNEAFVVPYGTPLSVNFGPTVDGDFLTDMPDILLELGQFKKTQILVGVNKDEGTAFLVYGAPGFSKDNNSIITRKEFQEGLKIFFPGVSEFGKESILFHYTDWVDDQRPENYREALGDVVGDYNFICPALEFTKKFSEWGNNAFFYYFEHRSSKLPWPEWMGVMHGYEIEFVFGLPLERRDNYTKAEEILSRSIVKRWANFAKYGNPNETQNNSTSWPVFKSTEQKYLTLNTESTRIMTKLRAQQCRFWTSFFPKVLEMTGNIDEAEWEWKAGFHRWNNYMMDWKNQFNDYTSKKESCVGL
Procedure: The butyrylcholinesterase (BChE) inhibition activity was determined according to the Ellman's method with minor modifications. Total volume of the reaction mixture was 100 µL containing 60 µL, Na2HPO4 buffer, 50 mM and pH 7.7. Ten µL test compound 0.5 mM well-1, followed by the addition of 10 µL (0.5 unit well-1)BChE. […] The reaction was initiated by the addition of 10 µL of 0.5 mM well-1 substrate (butyrylthiocholine bromide) followed by the addition of 10 µL DTNB, 0.5 mM well-1. […] Synergy HT (BioTek, USA) 96-well plate reader was used in all experiments. All experiments were carried out with their respective controls in triplicate.

Chain of Acetylcholinesterase (P22303 whole entry): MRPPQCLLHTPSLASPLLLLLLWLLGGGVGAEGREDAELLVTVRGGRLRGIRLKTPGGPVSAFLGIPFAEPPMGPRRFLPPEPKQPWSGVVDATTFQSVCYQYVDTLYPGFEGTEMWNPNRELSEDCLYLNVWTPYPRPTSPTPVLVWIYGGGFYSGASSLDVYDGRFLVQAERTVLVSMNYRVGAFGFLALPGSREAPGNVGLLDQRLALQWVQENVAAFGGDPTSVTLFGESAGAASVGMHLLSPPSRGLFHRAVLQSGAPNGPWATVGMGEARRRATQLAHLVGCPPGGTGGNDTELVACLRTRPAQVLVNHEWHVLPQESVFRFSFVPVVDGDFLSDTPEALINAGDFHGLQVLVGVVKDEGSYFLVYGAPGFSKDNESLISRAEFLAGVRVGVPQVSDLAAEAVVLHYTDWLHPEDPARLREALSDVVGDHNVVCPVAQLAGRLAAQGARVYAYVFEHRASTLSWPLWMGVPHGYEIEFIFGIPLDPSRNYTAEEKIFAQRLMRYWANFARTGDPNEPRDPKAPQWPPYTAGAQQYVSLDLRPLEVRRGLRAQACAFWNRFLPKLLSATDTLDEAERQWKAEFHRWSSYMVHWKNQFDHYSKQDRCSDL

CCCCN(c1ccc(-c2ccc(N(CCCC)S(=O)(=O)c3ccccc3)c(C)c2)cc1C)S(=O)(=O)c1ccccc1 [N,N'-(3,3'-dimethylbiphenyl-4,4'-diyl)bis(N-butylbenzenesulfonamide) (3k)]
IC50 (Acetylcholinesterase): 3.72 µM
IC50 (Cholinesterase): 20.3 µM

CCCCCN(c1ccc(-c2ccc(N(CCCCC)S(=O)(=O)c3ccccc3)cc2)cc1)S(=O)(=O)c1ccccc1 [N,N'-(biphenyl-4,4'-diyl)bis(N-pentylbenzenesulfonamide) (3d)]
IC50 (Acetylcholinesterase): 79.6 µM

Cc1cc(-c2ccc(NS(=O)(=O)c3ccccc3)c(C)c2)ccc1NS(=O)(=O)c1ccccc1 [N,N'-(3,3'-dimethylbiphenyl-4,4'-diyl)dibenzenesulfonamide (2b)]
IC50 (Acetylcholinesterase): 123 µM

CCCCCCCCCCCCCCCCN(c1ccc(-c2ccc(N(CCCCCCCCCCCCCCCC)S(=O)(=O)c3ccccc3)c(C)c2)cc1C)S(=O)(=O)c1ccccc1 [N,N'-(3,3'-dimethylbiphenyl-4,4'-diyl)bis(N-hexadecylbenzenesulfonamide) (3o)]
IC50 (Acetylcholinesterase): 2.45 µM
IC50 (Cholinesterase): 24.7 µM

CCCCCCN(c1ccc(-c2ccc(N(CCCCCC)S(=O)(=O)c3ccccc3)c(C)c2)cc1C)S(=O)(=O)c1ccccc1 [N,N'-(3,3'-dimethylbiphenyl-4,4'-diyl)bis(N-hexylbenzenesulfonamide) (3m)]
IC50 (Acetylcholinesterase): 49.6 µM

Cc1cc(-c2ccc(N(C(C)C)S(=O)(=O)c3ccccc3)c(C)c2)ccc1N(C(C)C)S(=O)(=O)c1ccccc1 [N,N'-(3,3'-dimethylbiphenyl-4,4'-diyl)bis(N-isopropylbenzenesulfonamide) (3j)]
IC50 (Acetylcholinesterase): 101 µM

Cc1cc(-c2ccc(N(Cc3ccccc3)S(=O)(=O)c3ccccc3)c(C)c2)ccc1N(Cc1ccccc1)S(=O)(=O)c1ccccc1 [N,N'-(3,3'-dimethylbiphenyl-4,4'-diyl)bis(N-benzylbenzenesulfonamide) (3p)]
IC50 (Acetylcholinesterase): 2.27 µM
IC50 (Cholinesterase): 31.3 µM

CC(=O)N(c1ccc(-c2ccc(N(C(C)=O)S(=O)(=O)c3ccccc3)cc2)cc1)S(=O)(=O)c1ccccc1 [N,N'-(biphenyl-4,4'-diyl)bis(N-(phenylsulfonyl)acetamide) (3a)]
IC50 (Acetylcholinesterase): 103 µM
IC50 (Cholinesterase): 156 µM

CCCCCN(c1ccc(-c2ccc(N(CCCCC)S(=O)(=O)c3ccccc3)c(C)c2)cc1C)S(=O)(=O)c1ccccc1 [N,N'-(3,3'-dimethylbiphenyl-4,4'-diyl)bis(N-pentylbenzenesulfonamide) (3l)]
IC50 (Acetylcholinesterase): 51.2 µM

CC(C)N(c1ccc(-c2ccc(N(C(C)C)S(=O)(=O)c3ccccc3)cc2)cc1)S(=O)(=O)c1ccccc1 [N,N'-(biphenyl-4,4'-diyl)bis(N-isopropylbenzenesulfonamide) (3b)]
IC50 (Acetylcholinesterase): 73.2 µM

CCCCCCCN(c1ccc(-c2ccc(N(CCCCCCC)S(=O)(=O)c3ccccc3)cc2)cc1)S(=O)(=O)c1ccccc1 [N,N'-(biphenyl-4,4'-diyl)bis(N-heptylbenzenesulfonamide) (3f)]
IC50 (Acetylcholinesterase): 58.6 µM

CCCCCCCCCCCCCCCCN(c1ccc(-c2ccc(N(CCCCCCCCCCCCCCCC)S(=O)(=O)c3ccccc3)cc2)cc1)S(=O)(=O)c1ccccc1 [N,N’-(biphenyl-4,4’-diyl)bis(N-hexadecylbenzenesulfonamide) (3g)]
IC50 (Acetylcholinesterase): 4.63 µM
IC50 (Cholinesterase): 7.74 µM

CCCCCCN(c1ccc(-c2ccc(N(CCCCCC)S(=O)(=O)c3ccccc3)cc2)cc1)S(=O)(=O)c1ccccc1 [N,N'-(biphenyl-4,4'-diyl)bis(N-hexylbenzenesulfonamide) (3e)]
IC50 (Acetylcholinesterase): 78.6 µM

O=S(=O)(c1ccccc1)N(Cc1ccccc1)c1ccc(-c2ccc(N(Cc3ccccc3)S(=O)(=O)c3ccccc3)cc2)cc1 [N,N'-(biphenyl-4,4'-diyl)bis(N-benzylbenzenesulfonamide) (3h)]
IC50 (Acetylcholinesterase): 61.6 µM
IC50 (Cholinesterase): 35.8 µM

CCCCCCCN(c1ccc(-c2ccc(N(CCCCCCC)S(=O)(=O)c3ccccc3)c(C)c2)cc1C)S(=O)(=O)c1ccccc1 [N,N'-(3,3'-dimethylbiphenyl-4,4'-diyl)bis(N-heptylbenzenesulfonamide) (3n)]
IC50 (Acetylcholinesterase): 43.2 µM
IC50 (Cholinesterase): 48.7 µM

CC(=O)N(c1ccc(-c2ccc(N(C(C)=O)S(=O)(=O)c3ccccc3)c(C)c2)cc1C)S(=O)(=O)c1ccccc1 [N,N'-(3,3'-dimethylbiphenyl-4,4'-diyl)bis(N-(phenylsulfonyl)acetamide) (3i)]
IC50 (Acetylcholinesterase): 96.3 µM

CCCCN(c1ccc(-c2ccc(N(CCCC)S(=O)(=O)c3ccccc3)cc2)cc1)S(=O)(=O)c1ccccc1 [N,N'-(biphenyl-4,4'-diyl)bis(N-butylbenzenesulfonamide) (3c)]
IC50 (Acetylcholinesterase): 8.41 µM
IC50 (Cholinesterase): 125 µM

O=S(=O)(Nc1ccc(-c2ccc(NS(=O)(=O)c3ccccc3)cc2)cc1)c1ccccc1 [N,N'-(biphenyl-4,4'-diyl)dibenzenesulfonamide (2a)]
IC50 (Acetylcholinesterase): 42.3 µM
IC50 (Cholinesterase): 203 µM
